Columns and labels:
Format in all cases: in vivo
[1] = system: Heliothis virescens (Tobacco Budworm); test: Heliothis virescens egg test on artificial diet; conditions: 96 h, 200 ppm (concentration in well 18 ppm), eggs 0-24 h old on artificial diet, egg mortality, larval mortality, growth regulation after 4 days
Text: (§1) This Example illustrates the insecticidal and acaricidal properties of compounds of formula (I).

[2] = system: Diabrotica balteata (Corn Root Worm); test: Diabrotica balteata larval test on artificial diet; conditions: 120 h, 200 ppm (concentration in well 18 ppm), L2 larvae, larval mortality and growth regulation after 5 days
Text: as §1

[3] = system: Tetranychus urticae (Two-Spotted Spider Mite); test: Tetranychus urticae leaf disc spray test; conditions: foliar, 192 h, 200 ppm spray on bean leaf discs, mixed ages, egg, larval and adult mortality 8 days later
Text: as §1

[4] = system: Spodoptera littoralis (Egyptian Cotton Leafworm); test: Spodoptera littoralis leaf disc spray test; conditions: foliar, 72 h, 200 ppm spray on cotton leaf discs, mortality, feeding behavior, growth regulation 3 days after treatment
Procedure: This Example illustrates the insecticidal and acaricidal properties of compounds of formula (I). Tests were performed as follows:

[5] = system: Thrips tabaci (Onion Thrips); test: Thrips tabaci leaf disc spray test; conditions: foliar, 168 h, 200 ppm spray on sunflower leaf discs, mixed ages, mortality after 7 days
Text: as §1

[6] = system: Plutella xylostella (Diamond Back Moth); test: Plutella xylostella larval test on artificial diet; conditions: 144 h, 200 ppm (concentration in well 18 ppm), L2 larvae, larval mortality and growth regulation after 6 days
Text: as §1

Measured: pest or weed control at 200 ppm

Cc1cc(C2=NO[C@@](c3cc(Cl)c(Cl)c(Cl)c3)(C(F)(F)F)C2)ccc1C(=O)N[C@H]1C[S@@+]([O-])C1 [Compound C17, 2-methyl-N-(1-oxothietan-3-yl)-4-[(5S)-5-(3,4,5-trichlorophenyl)-5-(trifluoromethyl)-4H-isoxazol-3-yl]benzamide]
≥ 80%: all assays above

Cc1cc(C2=NO[C@@](c3cc(Cl)cc(Cl)c3)(C(F)(F)F)C2)cnc1C(=O)N[C@H]1C[S@@+]([O-])C1 [Compound C16, 5-[(5S)-5-(3,5-dichlorophenyl)-5-(trifluoromethyl)-4H-isoxazol-3-yl]-3-methyl-N-(1-oxidothietan-1-ium-3-yl)pyridine-2-carboxamide]
≥ 80%: all assays above

Cc1cc(C2=NOC(c3cc(C(F)(F)F)n(CC(F)F)c3)(C(F)(F)F)C2)ccc1C(=O)NC1CSC1 (stereo not drawn) [Compound C007, 4-[5-[1-(2,2-difluoroethyl)-5-(trifluoromethyl)pyrrol-3-yl]-5-(trifluoromethyl)-4H-isoxazol-3-yl]-2-methyl-N-(thietan-3-yl)benzamide]
≥ 80%: all assays above

Cc1cc(C2=NOC(c3cc(Cl)cc(Cl)c3)(C(F)(F)F)C2)ccc1C(=O)N1CC2(CSC2)C1 (stereo not drawn) [Compound C013, [4-[5-(3,5-dichlorophenyl)-5-(trifluoromethyl)-4H-isoxazol-3-yl]-2-methyl-phenyl]-(6-thia-2-azaspiro[3.3]heptan-2-yl)methanone]
≥ 80%: [2] | [3] | [5] | [6]

O=C(N[C@H]1C[S@@+]([O-])C1)c1ccc(C2=NO[C@@](c3cc(Cl)cc(Cl)c3)(C(F)(F)F)C2)cc1Cl [Compound C15, 2-chloro-4-[(5S)-5-(3,5-dichlorophenyl)-5-(trifluoromethyl)-4H-isoxazol-3-yl]-N-(1-oxidothietan-1-ium-3-yl)benzamide]
≥ 80%: all assays above

CCc1cc(C2=NOC(c3cc(Cl)cc(Cl)c3)(C(F)(F)F)C2)ccc1C(=O)NC1CSC1 (stereo not drawn) [Compound B69, 4-[5-(3,5-dichlorophenyl)-5-trifluoromethyl-4H-isoxazol-3-yl]-2-ethyl-N-(thietan-3-yl)benzamide]
≥ 80%: all assays above

O=C(NC1CSC1)c1ccc(C2=NOC(c3cc(Cl)cc(Cl)c3)(C(F)(F)F)C2)cc1[N+](=O)[O-] (stereo not drawn) [Compound B56, 4-[5-(3,5-dichlorophenyl)-5-trifluoromethyl-4H-isoxazol-3-yl]-2-nitro-N-(thietan-3-yl)benzamide]
≥ 80%: all assays above

Cc1cc(C2=NOC(c3cc(Cl)cc(Cl)c3)(C(F)(F)F)C2)ccc1C(=O)NCC1CS(=O)(=O)C1 (stereo not drawn) [Compound A132, 4-[5-(3,5-dichlorophenyl)-5-(trifluoromethyl)-4H-isoxazol-3-yl]-2-methyl-N-(1.1-dioxo-thietan-3-ylmethyl)benzamide]
≥ 80%: all assays above

Cc1cc(C2=NOC(c3cc(C(F)(F)F)n(C)c3)(C(F)(F)F)C2)ccc1C(=O)NC1CSC1 (stereo not drawn) [Compound C006, 2-methyl-4-[5-[1-methyl-5-(trifluoromethyl)pyrrol-3-yl]-5-(trifluoromethyl)-4H-isoxazol-3-yl]-N-(thietan-3-yl)benzamide]
not listed: [1]
≥ 80%: all other assays above

Cc1cc(C2=NO[C@@](c3cc(Cl)c(F)c(Cl)c3)(C(F)(F)F)C2)ccc1C(=O)NC1CS(=O)(=O)C1 [Compound C18, 4-[(5S)-5-(3,5-dichloro-4-fluoro-phenyl)-5-(trifluoromethyl)-4H-isoxazol-3-yl]-N-(1,1-dioxothietan-3-yl)-2-methyl-benzamide]
≥ 80%: all assays above

Cc1cc(C2=NO[C@@](c3cc(Cl)cc(Cl)c3)(C(F)(F)F)C2)ccc1C(=O)NCC1CS(=O)(=O)C1 [Compound C20, 4-[(5S)-5-(3,5-dichlorophenyl)-5-(trifluoromethyl)-4H-isoxazol-3-yl]-N-[(1,1-dioxothietan-3-yl)methyl]-2-methyl-benzamide]
≥ 80%: all assays above

Cc1cc(C2=NOC(c3cc(Cl)cc(Cl)c3)(C(F)(F)F)C2)ccc1C(=O)NCC1CSC1 (stereo not drawn) [Compound A130, 4-[5-(3,5-dichlorophenyl)-5-(trifluoromethyl)-4H-isoxazol-3-yl]-2-methyl-N-(thietan-3-ylmethyl)benzamide]
≥ 80%: all assays above

Reference: patent US9247740B2, “Isoxazoline derivatives as insecticidal compounds” (Syngenta Participations AG, priority 2011, dated 2016)
